Reference: US20260132129A1 (Genesis Therapeutics, Inc., priority 2022, published 2026)

Target: T1, PI3Kα H1047R (T47D cells) (Homo sapiens, UniProt P42336, H1047R)
T1 construct: endogenous in cells; host or cells: T47D cells
Assay: PI3Kα cellular assay: pAKT HTRF in T47D cells after EGF stimulation
Type: cell-based
Conditions: for IC50: T47D cells (PI3Kα H1047R), pAKT S473 HTRF
Procedure: SKBR3 or T47D cells are seeded in DMEM containing 10% FBS at 25k cells/well into 96-well cell culture format. Cells are incubated overnight at 37° C. in a 5% CO2 incubator and the following day cell media is aspirated, adherent cells are washed 1× with room temperature PBS prior to serum-free media application. Cells are returned to 37° C. 5% CO2 incubator and incubated a further 16 hrs. Compounds are added to serum starved adherent cells with a top dose of 10,000 nM and 3× multiple dose reductions for a minimum dose of 0.5 nM diluted in DMSO. Cell/compound incubation continues for 1 hr in a 37° C., 5% CO2 incubator prior to 10 minute PIK3CA stimulation with 20 ng/ml EGF. Cells treated with 0.1% DMSO and 20 ng/mL EGF are employed as negative control, cells treated with 10 uM Alpelisib and 20 ng/mL EGF are employed as a positive control. After 10 mins, plates are removed from incubator and cells are lysed with buffer and shaking 45 minutes. […] 384 well plate is left overnight at room temperature before reading HTRF on an Envision plate reader.
ND denotes value not determined with that assay for the specified compound; • for T47D (H1047R) selectivity over SKBR3 (WT): A denotes >20-fold; B denotes 20-fold≥value>5-fold; C denotes ≤5-fold. ND denotes value not determined with that assay for the specified compound; and • for T47D pAKT lipophilic efficiency (LiPE): A denotes >4; B denotes 4≥value>2; C denotes ≤2. ND denotes value not determined with that assay for the specified compound.

[1] = 1 hr compound, 20 ng/ml EGF 10 min
[2] = selectivity T47D (H1047R) over SKBR3 (WT), pAKT HTRF
[3] = selectivity of T47D (H1047R) over SKBR3 (WT) pAKT IC50

T1 sequence (P42336 whole entry H1047R): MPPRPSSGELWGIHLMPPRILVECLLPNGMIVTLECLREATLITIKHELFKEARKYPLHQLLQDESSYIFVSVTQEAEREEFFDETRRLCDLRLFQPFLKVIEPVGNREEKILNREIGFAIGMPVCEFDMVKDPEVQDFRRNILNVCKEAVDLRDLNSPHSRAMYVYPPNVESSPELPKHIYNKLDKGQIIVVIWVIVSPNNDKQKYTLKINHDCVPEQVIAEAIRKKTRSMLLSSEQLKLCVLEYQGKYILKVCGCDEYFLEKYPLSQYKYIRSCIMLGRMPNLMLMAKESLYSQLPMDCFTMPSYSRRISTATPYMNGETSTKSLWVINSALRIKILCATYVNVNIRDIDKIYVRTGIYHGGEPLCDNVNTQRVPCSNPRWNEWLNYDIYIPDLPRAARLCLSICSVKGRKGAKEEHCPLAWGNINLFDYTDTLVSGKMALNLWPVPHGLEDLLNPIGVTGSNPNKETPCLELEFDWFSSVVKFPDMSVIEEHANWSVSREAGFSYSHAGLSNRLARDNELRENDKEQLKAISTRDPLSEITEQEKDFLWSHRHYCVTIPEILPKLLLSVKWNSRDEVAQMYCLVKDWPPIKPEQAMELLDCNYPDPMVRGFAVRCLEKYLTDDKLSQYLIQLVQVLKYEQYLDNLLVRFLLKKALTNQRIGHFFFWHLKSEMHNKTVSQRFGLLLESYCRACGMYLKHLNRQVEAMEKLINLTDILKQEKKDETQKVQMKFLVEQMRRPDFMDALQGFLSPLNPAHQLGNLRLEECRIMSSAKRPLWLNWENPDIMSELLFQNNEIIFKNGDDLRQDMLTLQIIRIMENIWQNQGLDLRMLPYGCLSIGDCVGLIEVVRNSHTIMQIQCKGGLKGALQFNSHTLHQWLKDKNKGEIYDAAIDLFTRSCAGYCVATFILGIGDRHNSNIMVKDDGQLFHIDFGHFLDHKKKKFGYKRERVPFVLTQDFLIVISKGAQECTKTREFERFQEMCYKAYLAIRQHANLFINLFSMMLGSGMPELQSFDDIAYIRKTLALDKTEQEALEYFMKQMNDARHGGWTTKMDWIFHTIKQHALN
T1 sequence (P27986 whole entry partner): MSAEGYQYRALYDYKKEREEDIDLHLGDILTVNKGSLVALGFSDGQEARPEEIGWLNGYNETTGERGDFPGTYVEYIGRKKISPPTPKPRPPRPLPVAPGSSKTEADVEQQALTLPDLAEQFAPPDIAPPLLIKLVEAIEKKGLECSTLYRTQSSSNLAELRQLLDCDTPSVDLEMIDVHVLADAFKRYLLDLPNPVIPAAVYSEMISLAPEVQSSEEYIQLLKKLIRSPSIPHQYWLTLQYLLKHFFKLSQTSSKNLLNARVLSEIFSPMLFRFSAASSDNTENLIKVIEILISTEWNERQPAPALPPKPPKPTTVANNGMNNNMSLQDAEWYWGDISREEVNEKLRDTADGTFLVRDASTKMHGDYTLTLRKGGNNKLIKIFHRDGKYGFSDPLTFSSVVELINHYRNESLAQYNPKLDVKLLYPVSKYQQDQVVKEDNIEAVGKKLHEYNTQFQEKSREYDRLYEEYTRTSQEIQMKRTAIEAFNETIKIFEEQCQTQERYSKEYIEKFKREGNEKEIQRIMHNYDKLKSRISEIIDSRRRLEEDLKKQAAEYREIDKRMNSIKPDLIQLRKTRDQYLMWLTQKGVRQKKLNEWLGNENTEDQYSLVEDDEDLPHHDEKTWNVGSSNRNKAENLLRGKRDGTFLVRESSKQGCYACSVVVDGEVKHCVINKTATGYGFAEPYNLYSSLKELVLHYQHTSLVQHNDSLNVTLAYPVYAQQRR

| IC50 [1] | T47D pAKT S473 HTRF IC50 (H1047R): T47D (H1047R) selectivity over SKBR3 (WT) [2] | T47D pAKT S473 HTRF IC50 (H1047R): T47D (H1047R) selectivity over SKBR3 (WT) [3] | IC50 (EGF stimulation) | Structure (SMILES) |
| --- | --- | --- | --- | --- |
| > 2000 nM | C (C denotes ≤5-fold) | – | – | Cc1cc([C@@H](C)Nc2ccccc2C(=O)O)c2nc(N3C[C@@H]4CC(F)(F)C[C@@H]4C3)cc(=O)n2c1 (single isomer, unassigned) [Compound 582] |
| < 100 nM | A (A denotes >20-fold) | – | – | Cc1cc([C@H](C)Nc2ccccc2C(=O)O)c2nc(N3C[C@@H]4CC(F)(F)C[C@@H]4C3)cc(=O)n2c1 (single isomer, unassigned) [Compound 583] |
| < 100 nM | A (A denotes >20-fold) | – | – | Cc1cc([C@@H](C)Nc2ccccc2C(=O)O)c2nc(-c3ccc4sc(=O)[nH]c4c3)cc(=O)n2c1 (single isomer, unassigned) [Compound 593] |
| > 2000 nM | C (C denotes ≤5-fold) | – | – | Cc1cc([C@H](C)Nc2ccccc2S(N)(=O)=O)c2nc(N3Cc4ccccc4C3)cc(=O)n2c1 (single isomer, unassigned) [Compound 606] |
| < 100 nM | A (A denotes >20-fold) | – | – | Cc1cc([C@@H](C)Nc2ccccc2C(N)=O)c2nc(N3Cc4ccccc4C3)cc(=O)n2c1 (single isomer, unassigned) [Compound 620] |
| – | – | A (A denotes >20-fold) | – | Cc1cc([C@@H](C)Nc2ccccc2C(=O)O)c2nc(C3Cc4ccccc4[C@@H]3C)cc(=O)n2c1 (single isomer, unassigned) [Compound 652] |
| – | – | – | < 100 nM | Cc1cc([C@@H](C)Nc2ccccc2C(=O)O)c2nc(N3Cc4ccccc4[C@@H]3C)cc(=O)n2c1 (single isomer, unassigned) [Compound 652] |
| – | – | A (A denotes >20-fold) | < 100 nM | Cc1cc([C@@H](C)Nc2ccccc2C(=O)O)c2nc(-c3cnc4c(c3)c(C)nn4C)cc(=O)n2c1 (single isomer, unassigned) [Compound 696] |
| – | – | A (A denotes >20-fold) | < 100 nM | Cc1cc([C@@H](C)Nc2ccccc2C(=O)O)c2nc(N3C[C@@H](C)C(F)(F)[C@@H](C)C3)cc(=O)n2c1 (single isomer, unassigned) [Compound 711] |
| – | – | A (A denotes >20-fold) | < 100 nM | Cc1cc([C@@H](C)Nc2ccccc2S(N)(=O)=O)c2nc(N3C[C@@H](C)O[C@@H](C)C3)cc(=O)n2c1 (single isomer, unassigned) [Compound 730] |
| – | – | C (C denotes ≤5-fold) | > 2000 nM | Cc1cc([C@@H](C)Nc2ccccc2C(=O)O)c2nc(-c3ccc4c(c3)c(C)nn4C)cc(=O)n2c1 (single isomer, unassigned) [Compound 739] |
| – | – | A (A denotes >20-fold) | < 100 nM | Cc1cc([C@H](C)Nc2ccccc2C(=O)O)c2nc(-c3ccc4c(c3)c(C)nn4C)cc(=O)n2c1 (single isomer, unassigned) [Compound 740] |
| – | – | A (A denotes >20-fold) | < 100 nM | Cc1cc([C@@H](C)Nc2ccccc2C(=O)O)c2nc(-c3cnc4c(c3)c(C)c(C)n4C)c(C)c(=O)n2c1 (single isomer, unassigned) [Compound 804] |
| – | – | A (A denotes >20-fold) | < 100 nM | Cc1cc([C@@H](C)Nc2ccccc2S(N)(=O)=O)c2nc(N3Cc4ccccc4C3)c(C)c(=O)n2c1 (single isomer, unassigned) [Compound 856] |
| – | – | A (A denotes >20-fold) | < 100 nM | Cc1cc([C@@H](C)Nc2ccccc2C(=O)O)c2nc(-c3ccc4c(c3)c(C)nn4C3CC3)c(C)c(=O)n2c1 (single isomer, unassigned) [Compound 892] |
| – | – | A (A denotes >20-fold) | < 100 nM | Cc1cc([C@@H](C)Nc2ccccc2C(=O)O)c2nc(-c3ccc4c(c3)c(C)cn4C)c(C)c(=O)n2c1 (single isomer, unassigned) [Compound 902] |
| – | – | A (A denotes >20-fold) | < 100 nM | Cc1cc([C@@H](C)Nc2ccccc2C(=O)O)c2nc(-c3ccc(F)c(C#N)c3)c(C)c(=O)n2c1 (single isomer, unassigned) [Compound 947] |
| – | – | A (A denotes >20-fold) | < 100 nM | Cc1cc([C@@H](C)Nc2ccccc2C(=O)O)c2nc(-c3cccnc3)c(C)c(=O)n2c1 (single isomer, unassigned) [Compound 949] |
| – | – | A (A denotes >20-fold) | < 100 nM | Cc1cc([C@@H](C)Nc2ccccc2C(=O)O)c2nc(-c3ccnc(C4CC4)c3)c(C)c(=O)n2c1 (single isomer, unassigned) [Compound 953] |

Continued, compound first:

| Structure (SMILES) | IC50 [1] | T47D pAKT S473 HTRF IC50 (H1047R): T47D (H1047R) selectivity over SKBR3 (WT) [2] | T47D pAKT S473 HTRF IC50 (H1047R): T47D (H1047R) selectivity over SKBR3 (WT) [3] | IC50 (EGF stimulation) |
| --- | --- | --- | --- | --- |
| Cc1cc([C@@H](C)Nc2ccccc2)c2nc(-c3cc(C)c4oc(=O)[nH]c4c3)cc(=O)n2c1 (single isomer, unassigned) [Compound 29] | > 2000 nM | C (C denotes ≤5-fold) | – | – |
| Cc1cc(C(C)Nc2ccccc2C(=O)O)c2nc(-c3ccncc3)cc(=O)n2c1 (single isomer, unassigned) [Compound 268] | > 2000 nM | C (C denotes ≤5-fold) | – | – |
| Cc1cc(C(C)Nc2ccccc2C(=O)O)c2nc(-c3ccncc3)cc(=O)n2c1 (single isomer, unassigned) [Compound 269] | < 100 nM | A (A denotes >20-fold) | – | – |
| Cc1cc([C@H](C)Nc2ccccc2C(=O)O)c2nc(N3Cc4ccccc4C3)cc(=O)n2c1 (single isomer, unassigned) [Compound 393] | < 100 nM | A (A denotes >20-fold) | – | – |
| Cc1cc(C(C)Nc2ccccc2C(=O)O)c2nc(-c3ccc(CN4CCN(C(=O)C5CC5)CC4)c(F)c3)cc(=O)n2c1 (single isomer, unassigned) [Compound 420] | 100 to 500 nM | A (A denotes >20-fold) | – | – |
| Cc1cc(C(C)Nc2ccccc2C(=O)O)c2nc(-c3ccc(CN4CCN(C(=O)C5CC5)CC4)c(F)c3)cc(=O)n2c1 (single isomer, unassigned) [Compound 421] | > 2000 nM | C (C denotes ≤5-fold) | – | – |
| Cc1cc([C@@H](C)Nc2ccccc2C(=O)O)c2nc(-c3ccc(F)cc3)cc(=O)n2c1 (single isomer, unassigned) [Compound 424] | < 100 nM | A (A denotes >20-fold) | – | – |
| Cc1cc([C@@H](C)Nc2ccccc2C(=O)O)c2nc(N3CC[Si](C)(C)CC3)cc(=O)n2c1 (single isomer, unassigned) [Compound 431] | < 100 nM | A (A denotes >20-fold) | – | – |
| Cc1cc(C(C)Nc2ccccc2C(N)=O)c2nc(-c3ccncc3)cc(=O)n2c1 (single isomer, unassigned) [Compound 439] | > 2000 nM | C (C denotes ≤5-fold) | – | – |
| Cc1cc([C@H](C)Nc2ccccc2C(N)=O)c2nc(-c3ccncc3)cc(=O)n2c1 (single isomer, unassigned) [Compound 440] | 500 to 2000 nM | B (B denotes 20-fold≥value>5-fold) | – | – |
| Cc1cc([C@@H](C)Nc2ccccc2C(=O)O)c2nc(N3C[C@H](C)C[C@H](C)C3)cc(=O)n2c1 (single isomer, unassigned) [Compound 512] | < 100 nM | A (A denotes >20-fold) | – | – |
| Cc1cc(C(C)Nc2ccccc2C(=O)O)c2nc(-c3ccc4c(c3)c(N)nn4C)cc(=O)n2c1 (single isomer, unassigned) [Compound 535] | > 2000 nM | C (C denotes ≤5-fold) | – | – |
| Cc1cc([C@H](C)Nc2ccccc2C(=O)O)c2nc(-c3ccc4c(c3)c(N)nn4C)cc(=O)n2c1 (single isomer, unassigned) [Compound 536] | < 100 nM | A (A denotes >20-fold) | – | – |
| Cc1cc([C@H](C)Nc2ccccc2-c2ccnnc2)c2nc(N3Cc4ccccc4C3)c(C)c(=O)n2c1 (single isomer, unassigned) [Compound 848] | – | – | A (A denotes >20-fold) | < 100 nM |
| Cc1cc([C@@H](C)Nc2ccccc2C(=O)O)c2nc(-c3cnc(C)c(Cl)c3)c(C)c(=O)n2c1 (single isomer, unassigned) [Compound 951] | – | – | A (A denotes >20-fold) | < 100 nM |
